Patent publication US11779600B2, “Methods of treating or preventing alzheimer's disease and associated conditions” (CEDARS-SINAI MEDICAL CENTER, priority 2016, dated 2023)

Tests used:
[1] = tested on: ADtg mice; assay: Vascular cerebral amyloid angiopathy (CAA) score in ADtg mice; type: in vivo, mouse; settings: ADtg mice (FIG. 12)
Method: ADtg mice (10 months old) received subcutaneous injections of GA [also known as Cop-1 and Copaxone®; 100 μg in phosphate-buffered saline (PBS)] or PBS alone (control group) twice a week for 1 week and then once a week for 8 weeks. For evaluation of innate immune infiltration to the brain by flow cytometry, 10-month-old ADtg mice received subcutaneous injections of GA (100 mg in PBS) or PBS alone twice a week for 1 week and then once a week for 3 weeks. At the end of the study, all mice were anaesthetized and then perfused with ice-cold PBS with 0.5 mM EDTA, after which their organs were collected and analyzed or fixed in 2.5% paraformaldehyde (Sigma-Aldrich), and cryoprotected with 30% sucrose for further histological analysis.
Following secondary antibody staining, the brain sections were stained with thioflavin-S(Thio-S, 1% w/v in 70% ethanol) (Sigma-Aldrich) for 10 min at room temperature, washed three times in 70% ethanol, and then washed once in distilled water, for 1 min each.

[2] = tested on: bone marrow-derived macrophages (MΦ^BM); assay: Fibrillar Aβ1-42 phagocytosis assay in bone marrow-derived macrophages; type: cell-based, mouse
Method: Lyophilized non-fluoro amyloid-β1-42 peptide (#20276; Anaspec) was initially monomerized by dissolving it in ice-cold HFIP (hexafluoroisopropanol) (#52512; Sigma) to a final concentration of 1 mM and then aliquoted in sterile siliconized microcentrifuge tubes. The HFIP was first evaporated while in the sterile hood and then under vacuum conditions in a SpeedVac for 2 h to remove any trace of HFIP; the peptide film was stored at −20° C. until use. To induce fibril formation, fluoro (HiLyte647; #64161; Anaspec) and non-fluoro amyloid-β1-42 films were resuspended in media to which 10% of sterile NaOH 60 mM was first added and the media were vortexed for 30 s. Then, a sterile 45% H2O and a sterile 45% solution of 20 mM NaH2PO4+Na2HPO4 (pH 7.4) were added, and the media were vortexed again and incubated on a shaker for 2 weeks at 37° C. Pre-formed amyloid-β1-42 fibrils were then sonicated for 60 s and diluted to 100 nM using the same media prior to the phagocytosis assay.
To test amyloid-β phagocytosis by macrophage, in repeated experiments monocytes were isolated from the bone marrow of wild-type mice (n=18 mice) and differentiated into macro-phage by 7-day cultivation in complete RPMI-1640 medium (#21870; Life Technologies) with 10% serum and 20 ng/ml MCSF (#315-02; PeproTech). Bone marrow-derived macrophages (MΦBM) were generated from femurs and tibiae cultured for 6-7 days in complete RPMI 1640 medium (Life Technologies) with 10% FBS, 100 U/ml penicillin, 100 μg/ml streptomycin, 2 mM L-glutamine and 20 ng/ml MCSF (PeproTech). Primary cultures of macrophage were then plated at 1.2×10^5 cells per well (3-4 wells for each condition) in 24-well tissue-culture plates on glass cover-slips overnight. Next, macrophages were either treated with 30 μg/ml GA (Copaxone®; TEVA Neuroscience), Brefeldin A (BFA; Sigma, 1X), or 10 μM Minocycline (Sigma) for the duration of 1, 3, or 24 h, or not treated (control group). Before addition of fibrillar amyloid-β1-42, the cells were chilled in a 4° C. ice bath for 5 min; immediately after addition of the preformed fibrillar amyloid-β1-42 (100 nM), the plates were centrifuged at 515g in 25° C. followed by incubation at 37° C. for 30 or 60 min. The cells were then rinsed with amyloid-β-free medium to remove non-incorporated amyloid-β and later washed twice with PBS. Methanol (99.8%) at −20° C. for 20 min or 4% paraformaldehyde at room temperature for 12 min was used for fixation of the cells followed by repeated washes with PBS. […] The fluorescent signal and its total area were determined and quantified by the conversion of individual images to greyscale and standardizing to baseline using histogram-based thresholds with NIH ImageJ software. […]

Substance: glatiramer acetate [GA]
- vascular cerebral amyloid angiopathy (CAA) burden [1]: decreases
- increase of Aβ phagocytosis ([2]; 24 hours treatment, then fAβ1-42 for 30 min, quantitative ICC (FIG. 16E)): 2.5 fold
- increase of fibrillar Aβ1-42 uptake in MΦ^BM ([2]; GA pretreated, 100 nM fibrillar Aβ1-42 for 30 min, qICC and ELISA): 2.5-2.85 fold
- rise in fAβ1-42 uptake ([2]; GA-treated MΦ (FIG. 5D)): 2.8 fold
